Where “and” joins values, the source holds several entries; their conditions need not be identical. Identical values can stand only once. Entries after “also recorded” stand apart in the source; their conditions may differ. Like-named read-outs stand apart in the source and are kept apart here.
How the values were obtained:
[1] = system: Pg-CoV; test: microbe, parasite or virus in culture; assay type: cell-based; details: Pangolin coronavirus
[2] = system: WIV-1; test: organism not typed; assay type: cell-based, bat WIV-1
[3] = system: SHC014; test: organism not typed; assay type: cell-based, bat SHC014
[4] = system: HCoV-NL63; test: HCoV-NL63 CPE reduction assay in LLC-MK2 cells; assay type: cell-based
[5] = system: SARS-CoV; test: microbe, parasite or virus in culture; assay type: cell-based; details: Severe acute respiratory syndrome coronavirus, Vero
[6] = system: MHV; test: MHV antiviral assay in Huh7 cells (luciferase); assay type: cell-based, mouse hepatitis virus; details: Murine coronavirus, Huh-7, Huh7, MHV (betaCoV), N=2
[7] = system: MERS-CoV; test: microbe, parasite or virus in culture; assay type: cell-based; details: Middle East respiratory syndrome-related coronavirus, Huh-7, read-out: Median EC50
[8] = system: IBV; test: microbe, parasite or virus in culture; assay type: cell-based, infectious bronchitis virus
[9] = system: PDCoV; test: PDCoV antiviral CPE reduction assay in Huh7 cells; assay type: cell-based, porcine deltacoronavirus
[10] = assay type: in vivo, Syrian golden hamster; details: pre-exposure; for % body weight change compared to day 0, Avg: day 4 vs day 0, group average; for % body weight change compared to day 0: day 4 vs day 0, individual animals
[11] = system: SARS-CoV-2; assay type: in vivo, Syrian golden hamster; details: for Infectious virus in the lung (TCID50), average Log 10 / Infectious virus in the lung (TCID50), median Log 10 / Viral load (viral RNA) in the lung, average Log 10 / Viral load (viral RNA) in the lung, median Log 10 / Infectious virus in the lung (TCID50), Copy number, individual animal / Infectious virus in the lung (TCID50), Log 10, individual animal / Viral load (viral RNA) in the lung, Copy number, individual animal / Viral load (viral RNA) in the lung, Log 10, individual animal: 75 mg/kg BID; for Infectious virus in the lung (TCID50), average Log 10 / Infectious virus in the lung (TCID50), median Log 10 / Viral load (viral RNA) in the lung, average Log 10 / Viral load (viral RNA) in the lung, median Log 10: n=5; for Infectious virus in the lung (TCID50), Copy number, individual animal / Infectious virus in the lung (TCID50), Log 10, individual animal / Viral load (viral RNA) in the lung, Copy number, individual animal / Viral load (viral RNA) in the lung, Log 10, individual animal: listed as 87009676-AAA
[12] = system: SARS-CoV-2 (USA-WA1/2020); set-up: species or system Syrian golden hamster; details: hamster, in vivo

C[C@H]1Cn2ncc(C(=O)Nc3cccc(C#N)c3)c2C(=O)N1c1ccc(C(F)(F)c2ccccc2)cc1 [JNJ-9676, (S)-N-(3-cyanophenyl)-5-(4-(difluoro(phenyl)methyl)phenyl)-6-methyl-4-oxo-4,5,6,7-tetrahydropyrazolo[1,5-a]pyrazine-3-carboxamide]
EC50 [1]: 4 to 6 nM
EC50 [2]: 4 to 6 nM
EC50 [3]: 4 to 6 nM
antiviral activity (in words) ([4]; HCoV-NL63): no activity
EC50 ([4]; Human coronavirus NL63, LLC-MK2, HCoV-NL63 (alphaCoV), N=2, read-out: Median EC50): > 20000 nM
EC90 ([4]; Human coronavirus NL63, LLC-MK2, HCoV-NL63 (alphaCoV), N=2, read-out: Median EC90): > 20000 nM
EC50 ([5]; read-out: Median EC50): 16 nM
EC90 ([5]; read-out: Median EC90): 20 nM
EC50 ([6]; read-out: Median EC50): 3400 nM
EC90 ([6]; read-out: Median EC90): 12400 nM
EC50 [7]: 600 nM
EC50 ([8]; Avian coronavirus, Huh-7, read-out: Median EC50): 8000 nM
EC90 ([8]; Avian coronavirus, Huh-7, read-out: Median EC90): > 30000 nM
potency (in words) ([8]; gammacoronavirus IBV): single-digit micromolar potency
EC50 ([9]; Coronavirus HKU15, Huh-7, Huh7, PDCoV (deltaCoV), N=2, read-out: Median EC50): > 30000 nM
EC90 ([9]; Coronavirus HKU15, Huh-7, Huh7, PDCoV (deltaCoV), N=2, read-out: Median EC90): > 30000 nM
antiviral activity (in words) ([9]; PDCoV): no activity
% body weight change compared to day 0, Avg ([10]; JNJ-9676 8.33 mpk BID): 1.86%
% body weight change compared to day 0 ([10]; JNJ-9676 8.33 mpk BID, 8.33 mg/kg): 2.5% and 0.6% and 1.8% and 3% and 1.4%
% body weight change compared to day 0, Avg ([10]; JNJ-9676 25 mpk BID): 5.08%
% body weight change compared to day 0 ([10]; JNJ-9676 25 mpk BID, 25 mg/kg): 3.8% and 4.1% and 7.5% and 7.1% and 2.9%
% body weight change compared to day 0, Avg ([10]; JNJ-9676 75 mpk BID): 2.14%
% body weight change compared to day 0 ([10]; JNJ-9676 75 mpk BID, 75 mg/kg): -0.3% and 0.3% and 3.9% and 4.1% and 2.7%
Infectious virus in the lung (TCID50), average Log 10 ([11]; 10 h post exposure): 1.99 Log 10
Infectious virus in the lung (TCID50), median Log 10 ([11]; 10 h post exposure): 1.84 Log 10
Viral load (viral RNA) in the lung, average Log 10 ([11]; 10 h post exposure): 6.33 Log 10
Viral load (viral RNA) in the lung, median Log 10 ([11]; 10 h post exposure): 6.02 Log 10
Infectious virus in the lung (TCID50), Copy number, individual animal ([11]; 10 h post exposure): 3.34E+02 and 6.93E+01 and 7.21E+00 and 6.50E+01 and 8.01E+02
Infectious virus in the lung (TCID50), Log 10, individual animal ([11]; 10 h post exposure): 2.52 Log 10 and 1.84 Log 10 and 0.86 Log 10 and 1.81 Log 10 and 2.90 Log 10
Viral load (viral RNA) in the lung, Copy number, individual animal ([11]; 10 h post exposure): 1.05E+06 and 4.63E+06 and 1.13E+05 and 8.39E+05 and 9.46E+07
Viral load (viral RNA) in the lung, Log 10, individual animal ([11]; 10 h post exposure): 6.02 Log 10 and 6.67 Log 10 and 5.05 Log 10 and 5.92 Log 10 and 7.98 Log 10
Infectious virus in the lung (TCID50), average Log 10 ([11]; 24 h post exposure): 1.64 Log 10
Infectious virus in the lung (TCID50), median Log 10 ([11]; 24 h post exposure): 1.62 Log 10
Viral load (viral RNA) in the lung, average Log 10 ([11]; 24 h post exposure): 6.39 Log 10
Viral load (viral RNA) in the lung, median Log 10 ([11]; 24 h post exposure): 6.81 Log 10
Infectious virus in the lung (TCID50), Copy number, individual animal ([11]; 24 h post exposure): 4.14E+01 and 7.14E+01 and 5.40E+01 and 2.87E+01 and 3.52E+01
Infectious virus in the lung (TCID50), Log 10, individual animal ([11]; 24 h post exposure): 1.62 Log 10 and 1.85 Log 10 and 1.73 Log 10 and 1.46 Log 10 and 1.55 Log 10
Viral load (viral RNA) in the lung, Copy number, individual animal ([11]; 24 h post exposure): 9.36E+06 and 2.59E+04 and 3.10E+05 and 6.49E+06 and 1.85E+08
Viral load (viral RNA) in the lung, Log 10, individual animal ([11]; 24 h post exposure): 6.97 Log 10 and 4.41 Log 10 and 5.49 Log 10 and 6.81 Log 10 and 8.27 Log 10
Infectious virus in the lung (TCID50), average Log 10 ([11]; 48 h post exposure): 1.82 Log 10
Infectious virus in the lung (TCID50), median Log 10 ([11]; 48 h post exposure): 1.67 Log 10
Viral load (viral RNA) in the lung, average Log 10 ([11]; 48 h post exposure): 7.33 Log 10
Viral load (viral RNA) in the lung, median Log 10 ([11]; 48 h post exposure): 7.46 Log 10
Infectious virus in the lung (TCID50), Copy number, individual animal ([11]; 48 h post exposure): 4.79E+01 and 7.10E+02 and 4.67E+01 and 2.27E+01 and 3.31E+01
Infectious virus in the lung (TCID50), Log 10, individual animal ([11]; 48 h post exposure): 1.68 Log 10 and 2.85 Log 10 and 1.67 Log 10 and 1.36 Log 10 and 1.52 Log 10
Viral load (viral RNA) in the lung, Copy number, individual animal ([11]; 48 h post exposure): 5.20E+06 and 3.10E+06 and 6.15E+07 and 1.50E+08 and 2.86E+07
Viral load (viral RNA) in the lung, Log 10, individual animal ([11]; 48 h post exposure): 6.72 Log 10 and 6.49 Log 10 and 7.79 Log 10 and 8.18 Log 10 and 7.46 Log 10
efficacy (in words) ([11]; hamster, in vivo): efficacious; also recorded: significant efficacy
reduction of infectious virus in the lung ([11]; hamster, in vivo): 1.8 log10[TCID50 per mg lung]
Infectious virus in the lung, reduction relative to vehicle ([11]; hamster, in vivo, 75 mg/kg): 1.65 (p=0.0003) log10 TCID50/mg lung and 2.00 (p<0.0001) log10 TCID50/mg lung and 1.83 (p<0.0001) log10 TCID50/mg lung and 1.65 (p=0.0003) log10 TCID50/mg lung and 2.00 (p<0.0001) log10 TCID50/mg lung and 1.83 (p<0.0001) log10 TCID50/mg lung
Viral load in the lung, reduction relative to vehicle ([11]; hamster, in vivo, 75 mg/kg): 2.38 (p=0.0004) log10 copies/mg lung and 2.32 (p=0.0005) log10 copies/mg lung and 1.38 (p>0.05) log10 copies/mg lung and 2.38 (p=0.0004) log10 copies/mg lung and 2.32 (p=0.0005) log10 copies/mg lung and 1.38 (p>0.05) log10 copies/mg lung
Infectious SARS-CoV2 virus in the lung, Avg [12]: 137996 PFU/g Lung and 75729 PFU/g Lung

From article PMC11981937 (Nature, 2025)
